Data as given in ChEMBL document CHEMBL3751666, “Efficiently functionalized oxacalix[4]arenes: Synthesis, characterization and exploration of their biological profile as novel HDAC inhibitors” (2016).
In brackets after ≈: the same amount, converted by molar mass. Counter-ions that a name gives are not always drawn.

What was measured:
Type in all cases: functional
[1] = system: Candida albicans; test: Antifungal activity against Candida albicans by broth micro-dilution method
[2] = system: Aspergillus clavatus; test: Antifungal activity against Aspergillus clavatus by broth micro-dilution method
[3] = system: Streptococcus pyogenes; test: Antibacterial activity against Streptococcus pyogenes by broth micro-dilution method
[4] = system: Staphylococcus aureus; test: Antibacterial activity against Staphylococcus aureus by broth micro-dilution method
[5] = system: Escherichia coli; test: Antibacterial activity against Escherichia coli by broth micro-dilution method
[6] = system: Aspergillus niger; test: Antifungal activity against Aspergillus niger by broth micro-dilution method
[7] = system: HeLa; test: Cytotoxicity against human HeLa cells; settings: for CC50: read-out: LC50 (the source's name)
[8] = system: Pseudomonas aeruginosa; test: Antibacterial activity against Pseudomonas aeruginosa by broth micro-dilution method

| Compound | MIC [1] [µg/mL] | MIC [2] [µg/mL] | MIC [3] [µg/mL] | MIC [4] [µg/mL] | MIC [5] [µg/mL] | MIC [6] [µg/mL] | GI50 [7] [µM] | TGI [7] [µM] | CC50 [7] [µM] | MIC [8] [µg/mL] |
| --- | --- | --- | --- | --- | --- | --- | --- | --- | --- | --- |
| O=C(COc1cc2cc(c1)Oc1cc(c([N+](=O)[O-])cc1[N+](=O)[O-])Oc1cc(OCC(=O)N(c3ccccc3)c3ccccc3)cc(c1)Oc1cc(c([N+](=O)[O-])cc1[N+](=O)[O-])O2)N(c1ccccc1)c1ccccc1 | 12.5 (≈ 12.5 µM) | 12.5 (≈ 12.5 µM) | 3.12 (≈ 3.13 µM) | 1.75 (≈ 1.75 µM) | 1.75 (≈ 1.75 µM) | 25 (≈ 25 µM) | 38.3 | 82.2 | > 100 | 1 (≈ 1 µM) |
| CC1(C)S[C@@H]2[C@H](NC(=O)[C@H](N)c3ccccc3)C(=O)N2[C@H]1C(=O)O [AMPICILLIN] |  |  | 10 (≈ 28.6 µM) | 2 (≈ 5.72 µM) | 1 (≈ 2.86 µM) |  |  |  |  |  |
| O=C(COc1cc2cc(c1)Oc1cc(c([N+](=O)[O-])cc1[N+](=O)[O-])Oc1cc(OCC(=O)Nc3nc4ccc(Br)cc4s3)cc(c1)Oc1cc(c([N+](=O)[O-])cc1[N+](=O)[O-])O2)Nc1nc2ccc(Br)cc2s1 | 25 (≈ 22.3 µM) | 25 (≈ 22.3 µM) | 25 (≈ 22.3 µM) | 1 (≈ 0.894 µM) | 1 (≈ 0.894 µM) | 25 (≈ 22.3 µM) | 2.1 | 4.6 | > 100 | 1.75 (≈ 1.56 µM) |
| NYSTATIN | 10 | 10 |  |  |  | 10 |  |  |  |  |
| Cc1cccc2sc(NC(=O)COc3cc4cc(c3)Oc3cc(c([N+](=O)[O-])cc3[N+](=O)[O-])Oc3cc(OCC(=O)Nc5nc6c(C)cccc6s5)cc(c3)Oc3cc(c([N+](=O)[O-])cc3[N+](=O)[O-])O4)nc12 | 25 (≈ 25.3 µM) | 12.5 (≈ 12.6 µM) | 6.25 (≈ 6.32 µM) | 3.12 (≈ 3.16 µM) | 25 (≈ 25.3 µM) | 25 (≈ 25.3 µM) | 7.7 | 13.4 | > 100 | 12.5 (≈ 12.6 µM) |
| COc1cccc2c1C(=O)c1c(O)c3c(c(O)c1C2=O)C[C@@](O)(C(=O)CO)C[C@@H]3O[C@H]1C[C@H](N)[C@H](O)[C@H](C)O1 [DOXORUBICIN HYDROCHLORIDE] |  |  |  |  |  |  | < 0.1 | < 0.1 | 95.5 |  |
| O=[N+]([O-])c1cc([N+](=O)[O-])c2cc1Oc1cc(cc(OS(=O)(=O)c3cccc4cccnc34)c1)Oc1cc(c([N+](=O)[O-])cc1[N+](=O)[O-])Oc1cc(cc(OS(=O)(=O)c3cccc4cccnc34)c1)O2 | 25 (≈ 26 µM) | 25 (≈ 26 µM) | 12.5 (≈ 13 µM) | 3.12 (≈ 3.25 µM) | 6.25 (≈ 6.49 µM) | 50 (≈ 51.9 µM) | 12.8 | 25.6 | > 100 | 12.5 (≈ 13 µM) |
| CCn1cc(C(=O)O)c(=O)c2cc(F)c(N3CCNCC3)cc21 [NORFLOXACIN] |  |  | 1 (≈ 3.13 µM) | 1 (≈ 3.13 µM) | 1 (≈ 3.13 µM) |  |  |  |  | 1 (≈ 3.13 µM) |
| GENTAMICIN |  |  | 0.05 | 0.025 | 0.005 |  |  |  |  | 1 |
| O=C(Oc1cc2cc(c1)Oc1cc(c([N+](=O)[O-])cc1[N+](=O)[O-])Oc1cc(OC(=O)c3cccc4ccccc34)cc(c1)Oc1cc(c([N+](=O)[O-])cc1[N+](=O)[O-])O2)c1cccc2ccccc12 | 25 (≈ 28.1 µM) | 12.5 (≈ 14.1 µM) | 12.5 (≈ 14.1 µM) | 50 (≈ 56.3 µM) | 1.75 (≈ 1.97 µM) | 12.5 (≈ 14.1 µM) | 16.3 | 32.6 | > 100 | 1.75 (≈ 1.97 µM) |
| COC1=CC(=O)C[C@@H](C)[C@]12Oc1c(Cl)c(OC)cc(OC)c1C2=O [GRISEOFULVIN] | 50 (≈ 142 µM) | 10 (≈ 28.3 µM) |  |  |  | 10 (≈ 28.3 µM) |  |  |  |  |
| O=[N+]([O-])c1cc([N+](=O)[O-])c2cc1Oc1cc(cc(OS(=O)(=O)c3cccc4ccccc34)c1)Oc1cc(c([N+](=O)[O-])cc1[N+](=O)[O-])Oc1cc(cc(OS(=O)(=O)c3cccc4ccccc34)c1)O2 | 12.5 (≈ 13 µM) | 50 (≈ 52 µM) | 12.5 (≈ 13 µM) | 6.25 (≈ 6.5 µM) | 3.12 (≈ 3.25 µM) | 50 (≈ 52 µM) | 31.3 | 61.3 | > 100 | 3.12 (≈ 3.25 µM) |
| O=C(COc1cc2cc(c1)Oc1cc(c([N+](=O)[O-])cc1[N+](=O)[O-])Oc1cc(OCC(=O)Nc3cccc4c3C(=O)c3ccccc3C4=O)cc(c1)Oc1cc(c([N+](=O)[O-])cc1[N+](=O)[O-])O2)Nc1cccc2c1C(=O)c1ccccc1C2=O | 50 (≈ 45.2 µM) | 25 (≈ 22.6 µM) | 1 (≈ 0.903 µM) | 50 (≈ 45.2 µM) | 25 (≈ 22.6 µM) | 50 (≈ 45.2 µM) | 53.4 | > 100 | > 100 | 1.75 (≈ 1.58 µM) |
| O=C(COc1cc2cc(c1)Oc1cc(c([N+](=O)[O-])cc1[N+](=O)[O-])Oc1cc(OCC(=O)Nc3cccc4cccnc34)cc(c1)Oc1cc(c([N+](=O)[O-])cc1[N+](=O)[O-])O2)Nc1cccc2cccnc12 | 50 (≈ 52.7 µM) | 50 (≈ 52.7 µM) | 50 (≈ 52.7 µM) | 50 (≈ 52.7 µM) | 50 (≈ 52.7 µM) | 50 (≈ 52.7 µM) | 28.8 | 59.2 | > 100 | 3.12 (≈ 3.29 µM) |
| O=C(COc1cc2cc(c1)Oc1cc(c([N+](=O)[O-])cc1[N+](=O)[O-])Oc1cc(OCC(=O)Nc3nc4ccc(Cl)cc4s3)cc(c1)Oc1cc(c([N+](=O)[O-])cc1[N+](=O)[O-])O2)Nc1nc2ccc(Cl)cc2s1 | 50 (≈ 48.6 µM) | 50 (≈ 48.6 µM) | 3.12 (≈ 3.03 µM) | 12.5 (≈ 12.1 µM) | 6.25 (≈ 6.07 µM) | 50 (≈ 48.6 µM) | 13.7 | 28.6 | > 100 | 6.25 (≈ 6.07 µM) |
| O=C(COc1cc2cc(c1)Oc1cc(c([N+](=O)[O-])cc1[N+](=O)[O-])Oc1cc(OCC(=O)Nc3nc4ccccc4s3)cc(c1)Oc1cc(c([N+](=O)[O-])cc1[N+](=O)[O-])O2)Nc1nc2ccccc2s1 | 50 (≈ 52 µM) | 12.5 (≈ 13 µM) | 50 (≈ 52 µM) | 1 (≈ 1.04 µM) | 6.25 (≈ 6.5 µM) | 50 (≈ 52 µM) | 10.3 | 19.4 | > 100 | 6.25 (≈ 6.5 µM) |
| O=C(COc1cc2cc(c1)Oc1cc(c([N+](=O)[O-])cc1[N+](=O)[O-])Oc1cc(OCC(=O)Nc3nc4ccc([N+](=O)[O-])cc4s3)cc(c1)Oc1cc(c([N+](=O)[O-])cc1[N+](=O)[O-])O2)Nc1nc2ccc([N+](=O)[O-])cc2s1 | 50 (≈ 47.6 µM) | 50 (≈ 47.6 µM) | 1.75 (≈ 1.67 µM) | 1.75 (≈ 1.67 µM) | 12.5 (≈ 11.9 µM) | 42.9 (≈ 40.8 µM) | 41.3 | 93.2 | > 100 | 50 (≈ 47.6 µM) |
| COc1ccc2nc(NC(=O)COc3cc4cc(c3)Oc3cc(c([N+](=O)[O-])cc3[N+](=O)[O-])Oc3cc(OCC(=O)Nc5nc6ccc(OC)cc6s5)cc(c3)Oc3cc(c([N+](=O)[O-])cc3[N+](=O)[O-])O4)sc2c1 | 50 (≈ 49 µM) | 12.5 (≈ 12.2 µM) | 3.12 (≈ 3.06 µM) | 12.5 (≈ 12.2 µM) | 50 (≈ 49 µM) | 25 (≈ 24.5 µM) | 20.1 | 39.4 | > 100 | 25 (≈ 24.5 µM) |
